Assay results: US7601674B2, “α-oxygenated or α-thiolated carboxylic acid phenethylamide derivatives” (priority 2001, dated 2009)

Columns and labels:
Type in all cases: in vivo
Plasmopara viticola [1] = assay: D-1a Action against Plasmopara viticola on vines, residual-protective action; conditions: vine seedlings, test D-1a residual-protective, untreated plants attack 80-100%, read-out: inhibition of fungal infestation
Method: (§1) D-1: Action Against Plasmopara viticola on Vines
(§2) a) Residual-protective Action
Vine seedlings are sprayed at the 4- to 5-leaf stage with a spray mixture (0.02% active ingredient) prepared from a wettable powder formulation of the test compound. After 24 hours, the treated plants are infected with a sporangia suspension of the fungus. Fungus infestation is evaluated after incubation for 6 days at 95-100% relative humidity and +20° C.

Phytophthora [2] = assay: D-2a Action against Phytophthora on tomato plants, residual-protective action; conditions: test D-2a residual-protective, untreated plants attack 80-100%, read-out: inhibition of fungal infestation
Method: (§3) D-2: Action Against Phytophthora on Tomato Plants
as §2
After a cultivation period of 3 weeks, tomato plants are sprayed with a spray mixture (0.02% active ingredient) prepared from a wettable powder formulation of the test compound. After 48 hours, the treated plants are infected with a sporangia suspension of the fungus. Fungus infestation is evaluated after incubation of the infected plants for 5 days at 90-100% relative humidity and +20° C.

Plasmopara viticola [3] = assay: D-1b Action against Plasmopara viticola on vines, residual-curative action; conditions: vine seedlings, test D-1b residual-curative, untreated plants attack 80-100%, read-out: inhibition of fungal infestation
Method: as §1
b) Residual-curative Action
Vine seedlings are infected at the 4- to 5-leaf stage with a sporangia suspension of the fungus. After incubation for 24 hours in a humidity chamber at 95-100% relative humidity and […], the infected plants are dried and sprayed with a spray mixture (0.02% active ingredient) prepared from a wettable powder formulation of the test compound. After the spray coating has dried, the treated plants are placed in the humidity chamber again. Fungus infestation is evaluated 6 days after infection.

Phytophthora [4] = assay: D-2b Action against Phytophthora on tomato plants, systemic action; conditions: test D-2b systemic (soil drench), untreated plants attack 80-100%, read-out: inhibition of fungal infestation
Method: as §3
After a cultivation period of 3 weeks, tomato plants are watered with a spray mixture (0.02% active ingredient based on the volume of the soil) prepared from a wettable powder formulation of the test compound. […] After 96 hours, the treated plants are infected with a sporangia suspension of the fungus. Fungus infestation is evaluated after incubation of the infected plants for 4 days at 90-100% relative humidity and +20° C.

Phytophthora [5] = assay: D-3a Action against Phytophthora on potato plants, residual-protective action; conditions: potato plants (Bintje), test D-3a residual-protective, untreated plants attack 80-100%, read-out: inhibition of fungal infestation
Method: (§4) D-3: Action Against Phytophthora on Potato Plants
as §2
2-3 week old potato plants (Bintje variety) are sprayed with a spray mixture (0.02% active ingredient) prepared from a wettable powder formulation of the test compound. After 48 hours, the treated plants are infected with a sporangia suspension of the fungus. Fungus infestation is evaluated after incubation of the infected plants for 4 days at 90-100% relative humidity and +20° C.

Phytophthora [6] = assay: D-3b Action against Phytophthora on potato plants, systemic action; conditions: potato plants (Bintje), test D-3b systemic (soil drench), untreated plants attack 80-100%, read-out: inhibition of fungal infestation
Method: as §4
2-3 week old potato plants (Bintje variety) are watered with a spray mixture (0.02% active ingredient based on the volume of the soil) prepared from a wettable powder formulation of the test compound. […] After 48 hours, the treated plants are infected with a sporangia suspension of the fungus. Fungus infestation is evaluated after incubation of the infected plants for 4 days at 90-100% relative humidity and +20° C. Fungal infestation is effectively controlled with compounds of Tables 1 to 64.

Measured: inhibition at 200 ppm

C#CCOc1ccc(CCNC(=O)C(O)COc2ccc(Cl)cc2)cc1OC (stereo not shown) [Compound E1.24, 3-(4-Chloro-phenoxy)-2-hydroxy-N-[2-(3-methoxy-4-prop-2-ynyloxy-phenyl)-ethyl]-propionamide]
80 to 100%: Plasmopara viticola [1] | Phytophthora [2] | Plasmopara viticola [3] | Phytophthora [4]

C#CCOc1ccc(CCNC(=O)C(COc2ccc(Cl)cc2)OCC#C)cc1OC (stereo not shown) [Compound E1.26]
80 to 100%: all assays above
